# Data as given in patent publication EP1056700B1, “MEDICINAL USES OF PHENYLALKANOLS AND DERIVATES” (ZingoTX Pty Ltd, priority 1997, dated 1999).
# “Also recorded” adds a separate entry of the source.
# Legend:
# [1] = target: T1, SR Ca^2+-ATPase (Canis lupus familiaris, UniProt O46674); experiment: Sarcoplasmic reticulum Ca^2+-ATPase assay; format: biochemical, dog; conditions: for SR Ca^2+-ATPase Activity: 0 µM = 100, dog cardiac SR; for SR Ca^2+-ATPase ↑ increase or stimulation: @ 25 µM; for IC50: read-out: SR Ca^2+-ATPase IC50 = conc. for 50% inhibition
# T1 construct: Effect of gingerols and their derivatives on the Ca^2+-ATPase activity of dog cardiac SR; from tissue; host or cells: dog heart (cardiac sarcoplasmic reticulum)
# Outline: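 Dog cardiac SR Ca^2+-ATPase activity was measured with 20 mM ATP solution over 30 min at 37°C. Released inorganic phosphate was developed colorimetrically, read at 655 nm and quantified against a Pi standard curve, with controls lacking ATP or calcium. Compounds from 10 mM DMSO stocks were tested in duplicate at ≤2.5% final DMSO.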
# [2] = tested on: rat mesenteric artery; experiment: Vasodilation on rat mesenteric small arteries
# Text: Small arteries (200-300 µm in diameter) isolated from rat mesentery were precontracted with endothelin prior to addition of the test substances and tested for relaxation.
# [3] = tested on: diaphragm rat; experiment: Cardiovascular and neuro-effector junction activities: diaphragm, rat
# Text: The cardiotonic action of 1-(4-hydroxy-3-methoxyphenyl)dodecan-3-ol [3.93] was confirmed from independent studies, carried out at our request as part of our agreement with Johnson & Johnson Research Ltd (J&J), by Prof. James Angus from the University of Melbourne. […] A tachycardial effect of the substance on guinea pig atria was, however, observed at significant rate, 50-60% of isoprenaline Emax and the response was not α- or β-adrenoceptor mediated. […] Cardiovascular and neuro-effector junction activities of gingerol analogues
# [4] = tested on: Platelet rich plasma; experiment: Platelet aggregation: [^3H]-serotonin release from platelet rich plasma, arachidonic acid initiated; format: cell-based; conditions: Homo sapiens, activation by EC50 concentration of arachidonic acid
# Method: Blood was collected from healthy volunteers who had taken no medication in the previous two weeks. The anticoagulant used was 3.8 % trisodium citrate. Platelet rich plasma was prepared and incubated with [^3H]-serotonin. This was followed by addition of gingerol analogues. Platelet activation was initiated using the EC50 concentration for arachidonic acid. The percentage of [^3H]-serotonin release was measured using a liquid scintillation counter. Then, dose-response curves were established and IC50 values were obtained.
# [5] = tested on: DRG neuronal cells; experiment: Peak [Ca^2+]i transients in cultured dorsal root ganglion neurons (Fura-2); format: cell-based, rat; conditions: for Number of capsaicin-sensitive cells responding / Peak [Ca^2+]i (Average ±SD): 2 mM Ca^2+
# Outline: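 Neonatal or adult Sprague-Dawley rat DRG neurons, Percoll-enriched and NGF-cultured, were loaded with 5 µM Fura-2 AM and imaged by 340/380 nm ratio at 20–23 °C in buffer with 2 mM Ca²⁺, pH 7.4. Compounds at 10 µM were perfused for 1 min, then washed out for 4 min. Viability was confirmed with 10 µM capsaicin and 50 mM KCl.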
# [6] = tested on: guinea pig atria; experiment: Organ bath assay on isolated guinea pig atria (rate and force of contraction)
# Outline: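 Test substances (DMSO, final 2.5 %) applied up to a maximum of 50 µM. Preparation: isolated atria of young (3-4 wk) male guinea pigs under 1 g resting tension in carbogen-oxygenated Krebs-Henseleit, baseline stable 20 min. Read-outs: beating rate and contractile force.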
# [7] = result in words, guinea pig atria
# T1 sequence (O46674 whole entry): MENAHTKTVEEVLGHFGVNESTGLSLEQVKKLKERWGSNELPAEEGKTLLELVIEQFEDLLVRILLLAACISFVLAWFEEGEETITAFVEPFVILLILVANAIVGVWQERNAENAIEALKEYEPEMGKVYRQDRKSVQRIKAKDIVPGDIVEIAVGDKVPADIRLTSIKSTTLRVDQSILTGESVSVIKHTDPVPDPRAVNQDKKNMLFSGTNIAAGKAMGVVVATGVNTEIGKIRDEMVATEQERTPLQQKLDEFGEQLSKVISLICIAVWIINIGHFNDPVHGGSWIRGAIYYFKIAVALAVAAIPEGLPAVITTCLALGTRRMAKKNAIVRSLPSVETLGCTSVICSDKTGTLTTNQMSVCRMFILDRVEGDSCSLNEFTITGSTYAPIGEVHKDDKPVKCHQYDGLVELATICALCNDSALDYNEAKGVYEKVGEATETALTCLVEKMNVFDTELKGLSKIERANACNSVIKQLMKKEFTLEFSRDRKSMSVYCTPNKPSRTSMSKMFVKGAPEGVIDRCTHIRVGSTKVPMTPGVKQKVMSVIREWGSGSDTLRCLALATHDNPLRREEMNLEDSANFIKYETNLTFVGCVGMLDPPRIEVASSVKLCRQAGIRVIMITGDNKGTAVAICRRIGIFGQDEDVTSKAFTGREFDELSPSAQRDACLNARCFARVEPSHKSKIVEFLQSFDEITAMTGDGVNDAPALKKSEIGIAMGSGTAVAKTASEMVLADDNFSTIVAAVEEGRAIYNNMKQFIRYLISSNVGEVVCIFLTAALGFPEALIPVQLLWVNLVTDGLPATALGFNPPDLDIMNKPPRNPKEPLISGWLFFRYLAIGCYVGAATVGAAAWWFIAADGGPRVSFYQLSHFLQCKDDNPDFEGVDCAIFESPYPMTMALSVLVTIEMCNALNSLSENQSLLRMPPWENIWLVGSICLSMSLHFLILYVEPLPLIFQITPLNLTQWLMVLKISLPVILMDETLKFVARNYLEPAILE
smiles,measurement,setting,value
CCCCCCCCCC(O)CCc1ccc(O)c(OC)c1 (centres unmarked) [1-(4-hydroxy-3-methoxyphenyl)dodecan-3-ol],SR Ca^2+-ATPase Activity,[1]; 5 µM,102
same,SR Ca^2+-ATPase Activity,[1]; 10 µM,108
same,SR Ca^2+-ATPase Activity,[1]; 25 µM,140
same,SR Ca^2+-ATPase Activity,[1]; 50 µM,101
same,SR Ca^2+-ATPase Activity,[1]; 100 µM,98
same,SR Ca^2+-ATPase Activity,[1]; 200 µM,16
same,SR Ca^2+-ATPase ↑ increase or stimulation,[1],↑40% @ 25
same,IC50,[1],50 to 100 µM
same,potency (EC50) for relaxation of the mesenteric artery versus inotropic effect in guinea pig atrium,[2],100 fold
same,EC50,"[2]; Rattus norvegicus, relaxation of small arteries (200-300 µm) precontracted with endothelin",100 nM
same,relaxation of rat mesenteric artery,[2]; result in words,very potent; also recorded: both enantiomers showed similar potency
same,diaphragm rat ↓,[3]; 10^-5 M (vehicle?),↓10% 10^-5 M (vehicle?)
same,IC50,[4],58 ± 1.9 µM
same,Number of capsaicin-sensitive cells responding,"[5]; high responses, 10 µM",5
same,Peak [Ca^2+]i (Average ±SD),"[5]; high responses, 10 µM",661 ± 376 (high responses) nM
same,evoked [Ca^2+]i transients,[5]; in Ca^2+-free medium or on application of ruthenium red (1 µM),abolished or greatly diminished
same,Number of capsaicin-sensitive cells responding,"[5]; low responses, 10 µM",10
same,Peak [Ca^2+]i (Average ±SD),"[5]; low responses, 10 µM",187 ± 66 (low responses) nM
same,[Ca^2+]i in capsaicin-sensitive DRG cells,[5]; result in words,increased intracellular calcium
same,FORCE OF CONTRACT^n ↑ increase,"[6]; @ 10 (µM), guinea pig atria",↑180% @ 10
same,HEART RATE ↑ increase,"[6]; @ 10 (µM), guinea pig atria",↑50% @ 10
same,increase on driven guinea pig left atria,"[6]; at 1 µM, followed by arrhythmia",50%
same,potency of one enantiomer versus the other in increasing the force of contraction,[6]; guinea pig atria,100 fold
same,arrhythmia,"[6]; guinea pig atria, after addition of a dose",followed by arrhythmia
CCCCCCCC(O)CC(=O)c1ccc(O)c(OC)c1 (centres unmarked) [3-hydroxy-1-(4-hydroxy-3-methoxyphenyl)decan-1-one],SR Ca^2+-ATPase Activity,[1]; 1 µM,104
same,SR Ca^2+-ATPase Activity,[1]; 5 µM,152
same,SR Ca^2+-ATPase Activity,[1]; 10 µM,174
same,SR Ca^2+-ATPase Activity,[1]; 25 µM,195
same,SR Ca^2+-ATPase Activity,[1]; 50 µM,180
same,SR Ca^2+-ATPase Activity,[1]; 100 µM,222
same,SR Ca^2+-ATPase ↑ increase or stimulation,[1]; listed as 3-hydroxy-1-(4-hydroxy-3-methoxyphenyl) decan-1-one (3.92),↑95% @ 25
same,SR Ca^2+-ATPase ↑ increase or stimulation,[1]; listed as 3.92,95%
same,stimulatory activity towards dog heart SR Ca^2+-ATPase,[1]; at 3 µM,200%
same,IC50,[1],~50 µM
same,diaphragm rat ↓,[3]; 3x10^-5 M,↓10% 3x10^-5 M
same,diaphragm rat,[3]; result in words with concentration,no effect 10^-5 M
same,Number of capsaicin-sensitive cells responding,[5]; 10 µM applied for 1 min,0 out of 5
same,Peak [Ca^2+]i (Average ±SD),[5]; 10 µM applied for 1 min,0 nM
same,FORCE OF CONTRACT^n ↓ decrease,"[6]; @ 10 (µM), guinea pig atria",↓11% @ 10
same,HEART RATE ↓ decrease,"[6]; @ 10 (µM), guinea pig atria",↓5% @ 10
same,FORCE OF CONTRACT^n ↓ decrease,"[6]; @ 30 (µM), guinea pig atria",↓13% @ 30
same,increase on driven guinea pig left atria,[6]; at 10 µM,50%
same,FORCE OF CONTRACT^n,[6]; [7],negative inotropic activity
same,HEART RATE,[6]; [7],negative chronotropic activity
